From US20260262643A1, “HERBICIDAL BENZOXAZINES” (FMC CORPORATION, priority 2022, published 2026)
Where two headings read alike, the source gives them in different places.

Experiments:
foxtail, giant = experiment: Test A preemergence; type: in vivo, Setaria faberi; details: Setaria faberi, pre-emergence, 240 h, read-out: Plant response rating, Foxtail, Giant
Summary of the method: (§1)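 Greenhouse pot test, 10 days. Compound (non-phytotoxic solvent, surfactant) sprayed on soil at seeding or on seedlings at one- to two-leaf stage. Visual injury rated 0–100 against untreated plants.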

ragweed = experiment: Test A postemergence; type: in vivo, Ambrosia artemisiifolia; details: Ambrosia artemisiifolia, post-emergence, 240 h; for pest or weed control at 125 g/ha: 125 g ai/ha; for pest or weed control at 500 g/ha: 500 g ai/ha
Summary of the method: as §1

wheat [1] = experiment: Test A preemergence; type: in vivo, Triticum aestivum; details: Triticum aestivum, pre-emergence, 240 h, read-out: Plant response rating, Wheat; for plant injury at 125 g/ha: 125 g ai/ha; for plant injury at 500 g/ha: 500 g ai/ha
Summary of the method: as §1

oat, wild [2] = experiment: Test A preemergence; type: in vivo, Avena fatua; details: Avena fatua, pre-emergence, 240 h, read-out: Plant response rating, Oat, Wild; for pest or weed control at 125 g/ha: 125 g ai/ha; for pest or weed control at 500 g/ha: 500 g ai/ha
Summary of the method: as §1

pigweed, palmer = experiment: Test A preemergence; type: in vivo, Amaranthus palmeri; details: Amaranthus palmeri, pre-emergence, 240 h, read-out: Plant response rating, Pigweed, Palmer; for pest or weed control at 125 g/ha: 125 g ai/ha; for pest or weed control at 500 g/ha: 500 g ai/ha
Summary of the method: as §1

kochia = experiment: Test A preemergence; type: in vivo, Bassia scoparia; details: Bassia scoparia, pre-emergence, 240 h, read-out: Plant response rating, Kochia; for pest or weed control at 125 g/ha: 125 g ai/ha; for pest or weed control at 500 g/ha: 500 g ai/ha
Summary of the method: as §1

oat, wild [3] = experiment: Test A postemergence; type: in vivo, Avena fatua; details: Avena fatua, post-emergence, 240 h; for pest or weed control at 125 g/ha: 125 g ai/ha; for pest or weed control at 500 g/ha: 500 g ai/ha
Summary of the method: as §1

ryegrass, Italian = experiment: Test A preemergence; type: in vivo, Lolium multiflorum; details: Lolium multiflorum, pre-emergence, 240 h, read-out: Plant response rating, Ryegrass, Italian; for pest or weed control at 125 g/ha: 125 g ai/ha; for pest or weed control at 500 g/ha: 500 g ai/ha
Summary of the method: as §1

soybean = experiment: Test A postemergence; type: in vivo, Glycine max; details: Glycine max, post-emergence, 240 h; for plant injury at 125 g/ha: 125 g ai/ha; for plant injury at 500 g/ha: 500 g ai/ha
Summary of the method: as §1

blackgrass = experiment: Test A postemergence; type: in vivo, Alopecurus myosuroides; details: Alopecurus myosuroides, post-emergence, 240 h; for pest or weed control at 125 g/ha: 125 g ai/ha; for pest or weed control at 500 g/ha: 500 g ai/ha
Summary of the method: as §1

ducksalad = experiment: Test B flooded paddy test; type: in vivo, Heteranthera limosa; details: Heteranthera limosa, 312 h, 250 g ai/ha, Flood, 13 days, 0 to 100 scale (0 no effect, 100 complete control); read-out: Plant response rating, Ducksalad
Summary of the method: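 Percent weed or crop control, judged by eye on a 0–100 scale 13 days post-treatment, reflects compound added to a 3 cm flood maintained over 2-leaf plants in the greenhouse. Missing entries are marked with a dash.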

wheat [4] = experiment: Test A postemergence; type: in vivo, Triticum aestivum; details: Triticum aestivum, post-emergence, 240 h; for plant injury at 125 g/ha: 125 g ai/ha; for plant injury at 500 g/ha: 500 g ai/ha
Summary of the method: as §1

corn = experiment: Test A preemergence; type: in vivo, Zea mays; details: Zea mays, pre-emergence, 240 h; for Corn plant response rating (crop injury, 0 = no effect, 100 = complete kill) at 125 g/ha: 125 g ai/ha; for Corn plant response rating (crop injury, 0 = no effect, 100 = complete kill) at 500 g/ha: 500 g ai/ha
Summary of the method: as §1

horseweed = experiment: Test A postemergence; type: in vivo, Erigeron canadensis; details: Erigeron canadensis, post-emergence, 240 h, postemergence, 10 days, 0 to 100 scale (0 no effect, 100 complete control)
Summary of the method: as §1

[5] = postemergence, 10 days, visual injury, 0 to 100 scale (0 no effect, 100 complete control), read-out: Plant response rating, Ragweed
[6] = visual injury after 10 days, 0 to 100 scale, 0 is no effect, 100 is complete control
[7] = 0 to 100 scale (0 no effect, 100 complete control), 10 days
[8] = postemergence, 10 days, visual injury, 0 to 100 scale (0 no effect, 100 complete control), read-out: Plant response rating, Oat, Wild
[9] = postemergence, 10 days, visual injury, 0 to 100 scale (0 no effect, 100 complete control), read-out: Plant response rating, Soybean
[10] = postemergence, 10 days, visual injury, 0 to 100 scale (0 no effect, 100 complete control), read-out: Plant response rating, Blackgrass
[11] = postemergence, 10 days, visual injury, 0 to 100 scale (0 no effect, 100 complete control), read-out: Plant response rating, Wheat

Structure (SMILES): Cc1cccc2c1O[C@@H](C)CN2C(=O)c1cccc(-n2cnc(Br)n2)c1 [Compound 61, [3-(3-Bromo-1H-1,2,4-triazol-1-yl)phenyl][(2S)-2,3-dihydro-2,8-dimethyl-4H-1,4-benzoxazin-4-yl]methanone]
- pest or weed control at 125 g/ha (foxtail, giant; 125 g ai/ha, visual injury after 10 days, 0 to 100 scale, 0 is no effect, 100 is complete control): 90%
- pest or weed control at 500 g/ha (foxtail, giant; 500 g ai/ha, 0 to 100 scale (0 no effect, 100 complete control), 10 days): 90%
- pest or weed control at 125 g/ha (ragweed; [5]): 30%
- pest or weed control at 500 g/ha (ragweed; Postemergence, 0 to 100 scale, read-out: Plant response rating, Ragweed): 40%
- plant injury at 125 g/ha (wheat [1]; [6]): 0%
- plant injury at 500 g/ha (wheat [1]; [7]): 20%
- pest or weed control at 125 g/ha (oat, wild [2]; [6]): 30%
- pest or weed control at 500 g/ha (oat, wild [2]; [7]): 30%
- pest or weed control at 125 g/ha (pigweed, palmer; [6]): 60%
- pest or weed control at 500 g/ha (pigweed, palmer; [7]): 90%
- pest or weed control at 125 g/ha (kochia; [6]): 20%
- pest or weed control at 500 g/ha (kochia; [7]): 60%
- pest or weed control at 125 g/ha (oat, wild [3]; [8]): 10%
- pest or weed control at 500 g/ha (oat, wild [3]; Postemergence, 0 to 100 scale, read-out: Plant response rating, Oat, Wild): 20%
- pest or weed control at 125 g/ha (ryegrass, Italian; [6]): 90%
- pest or weed control at 500 g/ha (ryegrass, Italian; [7]): 100%
- plant injury at 125 g/ha (soybean; [9]): 100%
- plant injury at 500 g/ha (soybean; Postemergence, 0 to 100 scale, read-out: Plant response rating, Soybean): 100%
- pest or weed control at 125 g/ha (blackgrass; [10]): 20%
- pest or weed control at 500 g/ha (blackgrass; Postemergence, 0 to 100 scale, read-out: Plant response rating, Blackgrass): 40%
- pest or weed control at 250 g/ha (ducksalad): 15%
- plant injury at 125 g/ha (wheat [4]; [11]): 10%
- plant injury at 500 g/ha (wheat [4]; Postemergence, 0 to 100 scale, read-out: Plant response rating, Wheat): 20%
- Corn plant response rating (crop injury, 0 = no effect, 100 = complete kill) at 125 g/ha (corn; [6]): 0%
- Corn plant response rating (crop injury, 0 = no effect, 100 = complete kill) at 500 g/ha (corn; [7]): 0%

Structure (SMILES): CC(C)c1ncn(-c2cc3c(c(C(=O)N4C[C@H](C)Oc5c(Cl)cccc54)c2)OCC3)n1 [Compound 147]
- pest or weed control at 125 g/ha (ragweed; postemergence, 10 days, 0 to 100 scale (0 no effect, 100 complete control), read-out: Ragweed plant response rating): 0%
- pest or weed control at 500 g/ha (ragweed; [5]): 30%
- plant injury at 125 g/ha (wheat [1]; 0 to 100 scale): 20%
- plant injury at 500 g/ha (wheat [1]; [6]): 50%
- pest or weed control at 125 g/ha (horseweed; 125 g ai/ha, read-out: Horseweed plant response rating): 0%
- pest or weed control at 500 g/ha (horseweed; 500 g ai/ha, visual injury, read-out: Plant response rating, Horseweed): 0%
- pest or weed control at 125 g/ha (oat, wild [2]; 0 to 100 scale): 20%
- pest or weed control at 500 g/ha (oat, wild [2]; [6]): 90%
- pest or weed control at 125 g/ha (pigweed, palmer; 0 to 100 scale): 90%
- pest or weed control at 500 g/ha (pigweed, palmer; [6]): 100%
- pest or weed control at 125 g/ha (kochia; 0 to 100 scale): 70%
- pest or weed control at 500 g/ha (kochia; [6]): 90%
- pest or weed control at 125 g/ha (oat, wild [3]; postemergence, 10 days, 0 to 100 scale (0 no effect, 100 complete control), read-out: Oat, Wild plant response rating): 30%
- pest or weed control at 500 g/ha (oat, wild [3]; [8]): 80%
- pest or weed control at 125 g/ha (ryegrass, Italian; 0 to 100 scale): 90%
- pest or weed control at 500 g/ha (ryegrass, Italian; [6]): 100%
- plant injury at 125 g/ha (soybean; postemergence, 10 days, 0 to 100 scale (0 no effect, 100 complete control), read-out: Soybean plant response rating): 100%
- plant injury at 500 g/ha (soybean; [9]): 100%
- pest or weed control at 125 g/ha (blackgrass; postemergence, 10 days, 0 to 100 scale (0 no effect, 100 complete control), read-out: Blackgrass plant response rating): 70%
- pest or weed control at 500 g/ha (blackgrass; [10]): 100%
- pest or weed control at 250 g/ha (ducksalad): 0%
- plant injury at 125 g/ha (wheat [4]; postemergence, 10 days, 0 to 100 scale (0 no effect, 100 complete control), read-out: Wheat plant response rating): 10%
- plant injury at 500 g/ha (wheat [4]; [11]): 60%
- Corn plant response rating (crop injury, 0 = no effect, 100 = complete kill) at 125 g/ha (corn; 0 to 100 scale): 0%
- Corn plant response rating (crop injury, 0 = no effect, 100 = complete kill) at 500 g/ha (corn; [6]): 10%
